We go through four molecules from publication PMC7230232, “Secondary Metabolites from the Culture of the Marine-derived Fungus Paradendryphiella salina PC 362H and Evaluation of the Anticancer Activity of Its Metabolite Hyalodendrin” (Marine Drugs, 2020).

In one experiment the test system is MCF7 cells. Kind of experiment: MTT cell viability assay, MCF7. In kind it is cell-based, human. The note with it: MTT, read-out: IC50 MCF7. As to the method: (§1) Cellular viability was determined by the MTT (methylthiazolyldiphenyl-tetrazolium bromide) assay. Briefly, cells were exposed to the indicated concentrations of crude extracts or compounds 1–4 for five doubling times and then incubated for 3 h at 37 °C with MTT. Formazan crystals were then dissolved in DMSO and optical density measured at 570 nm in a microplate reader. The half-maximal inhibitory concentration (IC50) was determined. Values given for crude extracts are averages of at least two experiments done in duplicate. IC50 values calculated for the four isolated compounds and the commercially available 4-hydroxy-tamoxifen (Sigma-Aldrich) are averages of at least three experiments done in duplicate.
(Tetrazolium assays rely on reduction of a dye to a coloured formazan, in cell work by metabolically active cells.)

The next experiment relates to MCF7-Sh-WISP2 cells. Kind of experiment: MTT cell viability assay, MCF7-Sh-WISP2. In kind it is cell-based, human. Conditions: pure compounds, MTT, read-out: IC50 MCF7-Sh-WISP2. As to the method:
as §1

The next experiment concerns 3T3-F442A cells. Kind of experiment: MTT cell viability assay, 3T3-F442A pre-adipocytes. In kind it is cell-based, murine. Conditions: pure compounds, MTT, read-out: IC50 3T3-F442A. As to the method: as §1
In experiment [1] the test system is Plasmodium falciparum (chloroquine-resistant FcB1/Colombia strain). Kind of experiment: Anti-plasmodial assay ([3H]hypoxanthine incorporation). The experiment is classed as cell-based. Conditions: data not shown, read-out: IC50 against Plasmodium falciparum. As to the method:
Supplementary materials and methods.
The fungus was isolated in January 2012 as an endophyte from the holdfast of P. caniculata harvested in Roscoff (Britany, France). Both morphological assessment and internal transcribed spacer (ITS) sequencing were performed to identify it as Paradendryphiella salina. It is now maintained at the MCAM culture collection (Muséum National d’Histoire Naturelle, Paris) under the number PC 362H.
The anti-plasmodial activity was evaluated against the chloroquine-resistant FcB1/Colombia strain of Plasmodium falciparum. The assay was performed using the method of Desjardins (Desjardins et al., 1979). Extracts and pure compounds were diluted in Dimethyl Sulfoxyde (DMSO) and added to the culture medium (final concentration: 20 µg/mL) in 96-well microplates. Asynchronous parasite cultures were then added (1 % parasitemia and 1 % final hematocrite), and plates were maintained for 24 hours at 37 °C in a candle jar. […] After a cycle of freezing and thawing, the cells were harvested from each well onto glass fiber filters, and the dried filters were counted in a scintillation counter. The growth inhibition for each well was determined by comparison of the radioactivity incorporated into the treated culture with that in the control culture maintained on the same plate. […]

Setting [2] is: Homo sapiens, MCF7, pure compounds.

Values joined by “and” are separate entries in the source; they are usually repeats but may differ in a detail not shown here. Equal entries are not always repeated. Where two headings read alike, the source gives them in different places.

For the molecule `C[C@H](C(=O)O)[C@H]1CC[C@@]2(C)C3=C(C[C@@H](O)[C@]12C)[C@@]1(C)CC[C@H](O)C(C)(C)C1CC3` (relative stereo) [Compound 1, Dendryphiellide A], the 50% inhibitory concentration (IC50) – broadly, the concentration needed to halve the response being measured – with MCF7 cells (setting [2]) is 20 µg/mL; with MCF7-Sh-WISP2 cells (Homo sapiens) it was above 25 µg/mL; with MCF7-Sh-WISP2 cells it was above 60 µM; in the experiment with 3T3-F442A cells (Mus musculus), above 25 µg/mL; in the experiment with 3T3-F442A cells, above 60 µM; in experiment [1], 65 ± 4.2 µM.

Take “4-hydroxy-tamoxifen [Hydroxi Tamoxifen, reference compound]”: the results for the half-inhibitory concentration (IC50) in the experiment with MCF7 cells (pure compounds), in the experiment on MCF7-Sh-WISP2 cells and in the experiment on 3T3-F442A cells were 8.8 µM, 11.6 µM and 14.5 µM, respectively.

As for `CS[C@]1(CO)C(=O)N(C)[C@](Cc2ccccc2)(SC)C(=O)N1C` [Compound 4, (3R, 6R) bisdethiodi(methylthio)hyalodendrin], the IC50 with MCF7 cells (setting [2]) was 15 µg/mL and 42 µM; in the experiment with MCF7-Sh-WISP2 cells (Homo sapiens), 24 µg/mL and 68 µM; in the experiment with 3T3-F442A cells (Mus musculus), 92 µg/mL and 26 µM.

Consider `COC(=O)CNC(=O)CC[C@@H](C)[C@H]1CC[C@H]2[C@H]3C(C[C@H](O)[C@]12C)[C@@]1(C)CC[C@@H](O)C[C@H]1C[C@H]3O` (stereo partly shown) [Compound 2, glycocholic acid methyl ester], for which the IC50 was > 25 µg/mL and > 50 µM in the experiment with MCF7 cells (setting [2]); > 25 µg/mL and > 50 µM in the experiment with MCF7-Sh-WISP2 cells (Homo sapiens); > 25 µg/mL and > 50 µM with 3T3-F442A cells (Mus musculus); 20.5 ± 3.5 µM in experiment [1].
